# Measured values as given in US12679843B2, “Pyrrolopyrimidine amines as complement inhibitors” (BioCryst Pharmaceuticals, Inc., priority 2020, dated 2026).
# Molecular target: Factor D (Homo sapiens, UniProt P00746)
# Test: Factor D esterolytic assay (Z-Lys-SBzl thioester substrate, DTNB, 405 nm)
# Assay type: biochemical
# Details: substrate Z-Lys-SBzl 1.29 mM, 100 mM HEPES, 500 mM NaCl, pH 7.5, 10% DMSO, tested a minimum of three times
# Method in brief: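 Human Factor D hydrolysis of Z-Lys-SBzl (1.29 mM) monitored at 405 nm via DTNB thiol detection for 600 s, 690 nm background subtracted. Buffer 100 mM HEPES, 500 mM NaCl, pH 7.5, 10% DMSO; substrate added immediately or after room-temperature preincubation. IC50 from percent inhibition of rate, at least three tests.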
# Factor D, sequence (P00746 26-253): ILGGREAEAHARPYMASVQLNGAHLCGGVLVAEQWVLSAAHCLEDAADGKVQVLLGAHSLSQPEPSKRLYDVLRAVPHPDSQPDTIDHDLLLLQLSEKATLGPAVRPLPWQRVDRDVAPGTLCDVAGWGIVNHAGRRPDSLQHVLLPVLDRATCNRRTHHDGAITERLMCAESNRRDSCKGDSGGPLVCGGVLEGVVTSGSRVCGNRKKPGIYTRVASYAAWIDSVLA
row,Compound,IC50
1,"Cc1ccc2c3c(N)ncnc3n(CC(=O)N3[C@H](C(=O)Nc4cccc(Br)n4)C[C@@]4(C)C[C@@H]34)c2c1 [Compound 24a, (1R,3S,5R)-2-(2-(4-amino-7-methyl-9H-pyrimido[4,5-b]indol-9-yl)acetyl)-N-(6-bromopyridin-2-yl)-5-methyl-2-azabicyclo[3.1.0]hexane-3-carboxamide]",< 100 nM
2,"Nc1ncnc2c1c1cccc(C(=O)O)c1n2CC(=O)N1[C@@H]2C[C@@H]2C[C@H]1C(=O)Nc1cccc(Br)n1 [Compound 220a, 4-amino-9-(2-((1R,3S,5R)-3-((6-bromopyridin-2-yl)carbamoyl)-2-azabicyclo[3.1.0]hexan-2-yl)-2-oxoethyl)-9H-pyrimido[4,5-b]indole-8-carboxylic acid]",100 to 1000 nM
3,"N#Cc1ccc(CNC(=O)[C@@H]2CCCN2C(=O)Cn2c3ccccc3c3c(N)ncnc32)cc1 [Compound 250b, (S)-1-(2-(4-amino-9H-pyrimido[4,5-b]indol-9-yl)acetyl)-N-(4-cyanobenzyl)pyrrolidine-2-carboxamide]",> 1000 nM
4,"Nc1ncnc2c1ncn2CC(=O)N1[C@@H]2C[C@@H]2C[C@H]1C(=O)Nc1cccc(Br)n1 [Compound 84a, (1R,3S,5R)-2-(2-(6-amino-9H-purin-9-yl)acetyl)-N-(6-bromopyridin-2-yl)-2-azabicyclo[3.1.0]hexane-3-carboxamide]",100 to 1000 nM
5,"Nc1ncnc2c1c1cc(Br)ccc1n2CC(=O)N1[C@@H]2C[C@@H]2C[C@H]1C(=O)Nc1cccc(Br)n1 [Compound 34e, (1R,3S,5R)-2-(2-(4-amino-6-bromo-9H-pyrimido[4,5-b]indol-9-yl)acetyl)-N-(6-bromopyridin-2-yl)-2-azabicyclo[3.1.0]hexane-3-carboxamide]",< 100 nM
6,"COC(=O)c1cn(CC(=O)N2C[C@H](F)C[C@H]2C(=O)NCc2cccc(Cl)c2F)c2ncnc(N)c12 [Compound 146a, methyl 4-amino-7-(2-((2S,4R)-2-((3-chloro-2-fluorobenzyl)carbamoyl)-4-fluoropyrrolidin-1-yl)-2-oxoethyl)-7H-pyrrolo[2,3-d]pyrimidine-5-carboxylate]",> 1000 nM
7,"Cc1cc(C)c2c(c1)c1c(N)ncnc1n2CC(=O)N1[C@H](C(=O)Nc2cccc(Br)n2)C[C@@]2(C)C[C@@H]12 [Compound 191a, (1R,3S,5R)-2-(2-(4-amino-6,8-dimethyl-9H-pyrimido[4,5-b]indol-9-yl)acetyl)-N-(6-bromopyridin-2-yl)-5-methyl-2-azabicyclo[3.1.0]hexane-3-carboxamide]",< 100 nM
8,"C[C@@]12C[C@@H](C(=O)Nc3cccc(Br)n3)N(C(=O)Cn3c4ncnc(N)c4c4cccc(F)c43)[C@@H]1C2 [Compound 198a, (1R,3S,5R)-2-(2-(4-amino-8-fluoro-9H-pyrimido[4,5-b]indol-9-yl)acetyl)-N-(6-bromopyridin-2-yl)-5-methyl-2-azabicyclo[3.1.0]hexane-3-carboxamide]",< 100 nM
9,"CNc1ncnc2c1cnn2CC(=O)N1CCC[C@H]1C(=O)NCc1cccc(Cl)c1F [Compound 76b, (S)—N-(3-chloro-2-fluorobenzyl)-1-(2-(4-(methylamino)-1H-pyrazolo[3,4-d]pyrimidin-1-yl)acetyl)pyrrolidine-2-carboxamide]",> 1000 nM
10,"Cc1cc(C(F)(F)F)cc2c3c(N)ncnc3n(CC(=O)N3[C@H](C(=O)Nc4cncc(Br)n4)C[C@@]4(C)C[C@@H]34)c12 [Compound 296a, (1R,3S,5R)-2-(2-(4-amino-8-methyl-6-(trifluoromethyl)-9H-pyrimido[4,5-b]indol-9-yl)acetyl)-N-(6-bromopyrazin-2-yl)-5-methyl-2-azabicyclo[3.1.0]hexane-3-carboxamide]",< 100 nM

# Now from value to compound:
row,IC50,Compound
1,100 to 1000 nM,"Nc1ncnc2c1c1c(F)cccc1n2CC(=O)N1[C@@H]2C[C@@H]2C[C@H]1C(=O)Nc1cccc(Br)n1 [Compound 50f, (1R,3S,5R)-2-(2-(4-amino-5-fluoro-9H-pyrimido[4,5-b]indol-9-yl)acetyl)-N-(6-bromopyridin-2-yl)-2-azabicyclo[3.1.0]hexane-3-carboxamide]"
2,100 to 1000 nM,"Nc1ncnc2c1ncn2CC(=O)N1[C@@H]2C[C@@H]2C[C@H]1C(=O)NCc1ccccc1 [Compound 101b, (1R,3S,5R)-2-(2-(6-amino-9H-purin-9-yl)acetyl)-N-benzyl-2-azabicyclo[3.1.0]hexane-3-carboxamide]"
3,< 100 nM,"Cc1ccc(-c2cc(C)c3c(c2)c2c(N)ncnc2n3CC(=O)N2[C@H](C(=O)Nc3cccc(Br)n3)C[C@@]3(C)C[C@@H]23)cc1 [Compound 255c, (1R,3S,5R)-2-(2-(4-amino-8-methyl-6-(p-tolyl)-9H-pyrimido[4,5-b]indol-9-yl)acetyl)-N-(6-bromopyridin-2-yl)-5-methyl-2-azabicyclo[3.1.0]hexane-3-carboxamide]"
4,< 100 nM,"C[C@@]12C[C@@H](C(=O)Nc3cccc(Br)n3)N(C(=O)Cn3c4ccc(C(=O)O)cc4c4c(N)ncnc43)[C@@H]1C2 [Compound 161a, 4-amino-9-(2-((1R,3S,5R)-3-((6-bromopyridin-2-yl)carbamoyl)-5-methyl-2-azabicyclo[3.1.0]hexan-2-yl)-2-oxoethyl)-9H-pyrimido[4,5-b]indole-6-carboxylic acid]"
5,> 1000 nM,"Nc1ncnc2c1c1cc(C(F)(F)F)ccc1n2CC(=O)N1c2ccccc2C[C@H]1C(=O)Nc1cccc(Br)n1 [Compound 179d, (S)-1-(2-(4-amino-6-(trifluoromethyl)-9H-pyrimido[4,5-b]indol-9-yl)acetyl)-N-(6-bromopyridin-2-yl)indoline-2-carboxamide]"
6,< 100 nM,"Cc1cc(C(F)(F)F)cc2c3c(N)ncnc3n(CC(=O)N3C[C@](C)(F)C[C@H]3C(=O)Nc3cccc(Cl)n3)c12 [Compound 320c, (2S,4R)-1-(2-(4-amino-8-methyl-6-(trifluoromethyl)-9H-pyrimido[4,5-b]indol-9-yl)acetyl)-N-(6-chloropyridin-2-yl)-4-fluoro-4-methylpyrrolidine-2-carboxamide]"
7,< 100 nM,"Nc1ncnc2c1c1ccc(O)cc1n2CC(=O)N1[C@@H]2C[C@@H]2C[C@H]1C(=O)Nc1cccc(Br)n1 [Compound 167a, (1R,3S,5R)-2-(2-(4-amino-7-hydroxy-9H-pyrimido[4,5-b]indol-9-yl)acetyl)-N-(6-bromopyridin-2-yl)-2-azabicyclo[3.1.0]hexane-3-carboxamide]"
8,< 100 nM,"COc1cccc2c3c(N)ncnc3n(CC(=O)N3[C@H](C(=O)Nc4nc(Br)ccc4C)C[C@@]4(C)C[C@@H]34)c12 [Compound 254a, (1R,3S,5R)-2-(2-(4-amino-8-methoxy-9H-pyrimido[4,5-b]indol-9-yl)acetyl)-N-(6-bromo-3-methylpyridin-2-yl)-5-methyl-2-azabicyclo[3.1.0]hexane-3-carboxamide]"
9,< 100 nM,"CCOC(=O)CCc1ccc2c(c1)c1c(N)ncnc1n2CC(=O)N1[C@@H]2C[C@@H]2C[C@H]1C(=O)Nc1cccc(Br)n1 [Compound 45d, ethyl 3-(4-amino-9-(2-((1R,3S,5R)-3-((6-bromopyridin-2-yl)carbamoyl)-2-azabicyclo[3.1.0]hexan-2-yl)-2-oxoethyl)-9H-pyrimido[4,5-b]indol-6-yl)propanoate]"
